Experimental data as given in ChEMBL document CHEMBL2380200, “Enantioselective inhibition of microbial lipolytic enzymes by nonracemic monocyclic enolphosphonate analogues of cyclophostin” (J Med Chem, 2013).

Experiments:
[1] = system: Mycobacterium tuberculosis; assay: Inhibition of Mycobacterium tuberculosis monoacylglycerol lipase Rv0183 preincubated with enzyme measured after 30 mins by pH-stat technique
[2] = biological target: T1, Cutinase 1 (Fusarium vanettenii) (UniProt P00590); assay: Inhibition of Fusarium solani pisi cutinase preincubated with enzyme measured after 30 mins by pH-stat technique
T1 sequence (whole entry): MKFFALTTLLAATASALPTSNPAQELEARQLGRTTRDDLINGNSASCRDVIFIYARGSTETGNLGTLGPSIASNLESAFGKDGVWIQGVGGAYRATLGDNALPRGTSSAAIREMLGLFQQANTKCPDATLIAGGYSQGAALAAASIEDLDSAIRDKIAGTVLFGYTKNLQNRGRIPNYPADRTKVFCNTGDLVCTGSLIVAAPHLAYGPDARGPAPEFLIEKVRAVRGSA

[3] = system: Mycobacterium tuberculosis; assay: Inhibition of Mycobacterium tuberculosis triacylglycerol lipase LipY at 20 molar excess compound concentration preincubated with enzyme measured after 30 mins by pH-stat technique relative to control
[4] = system: Mycobacterium tuberculosis; assay: Inhibition of Mycobacterium tuberculosis monoacylglycerol lipase Rv0183 at 20 molar excess compound concentration preincubated with enzyme measured after 30 mins by pH-stat technique relative to control
[5] = biological target: T1, Cutinase 1 (Fusarium vanettenii); assay: Inhibition of Fusarium solani pisi cutinase at 20 molar excess compound concentration preincubated with enzyme measured after 30 mins by pH-stat technique relative to control
[6] = system: Mycobacterium tuberculosis; assay: Inhibition of Mycobacterium tuberculosis triacylglycerol lipase LipY preincubated with enzyme measured after 30 mins by pH-stat technique

## CCCCCCCCCC[C@@H]1CC[P@@](=O)(OC)OC(C)=C1C(=O)OC
[1]
  XI50: 7.61 molar excess
[2]
  XI50: 3.38 molar excess
[3]
  inhibition: 82.8%
[4]
  inhibition: 87.7%
[5]
  inhibition: 91.8%
[6]
  XI50: 1.64 molar excess

## CCCCCCCCCC[C@H]1CC[P@@](=O)(OC)OC(C)=C1C(=O)OC
[1]
  XI50: 11.3 molar excess
[2]
  XI50: 97.3 molar excess
[3]
  inhibition: 39.8%
[4]
  inhibition: 78.7%
[5]
  inhibition: 22.5%
[6]
  XI50: 25.9 molar excess

## CCCCCCCCCC[C@@H]1CC[P@](=O)(OC)OC(C)=C1C(=O)OC
[1]
  XI50: 1.24 molar excess
[2]
  XI50: 4.07 molar excess
[3]
  inhibition: 49.6%
[4]
  inhibition: 93.1%
[5]
  inhibition: 86.5%
[6]
  XI50: 15.4 molar excess

## CCCCCCCCCC[C@H]1CC[P@](=O)(OC)OC(C)=C1C(=O)OC
[1]
  XI50: 1.16 molar excess
[2]
  XI50: 2.52 molar excess
[3]
  inhibition: 42.1%
[4]
  inhibition: 96.6%
[5]
  inhibition: 93.2%
[6]
  XI50: 20 molar excess
